Assay results taken from US7811797B2, “α-isomaltosylglucosaccharide-forming enzyme, process and uses of the same” (Kabushiki Kaisha Hayashibara Seibutsu Kagaku Kenkyujo, priority 2000, dated 2010).

What was measured:
[1] = system: α-isomaltosylglucosaccharide-forming enzyme; assay: Transfer-acceptor specificity, Enzyme of Strain C9; assay type: biochemical, Bacillus globisporus C9; settings: acceptor 1.6%, PINE-DEX #100 donor 4%, one unit/g donor, 30° C., pH 6.0, 24 hours
Procedure, shortened: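 Each candidate acceptor at 1.6% was combined with 4% partial starch hydrolysate donor and 1 unit/g donor (d.s.b.) of purified enzyme. Incubation ran 24 h at 30 °C, pH 6.0 for the C9, C11 and N75 enzymes and pH 8.4 for A19. Transfer products were detected by GLC for mono- and disaccharide acceptors and HPLC for trisaccharide acceptors.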

[2] = system: Escherichia coli IFO 3301; assay: Assimilation test, Escherichia coli; assay type: cell-based; settings: PYF medium with 0.5% saccharide, 37° C., four days, anaerobic
mice = assay: Acute toxicity test, oral administration; assay type: in vivo
From the text: Based on this, the LD50 of cyclotetrasaccharide was at least 50 g/kg mouse body weight, though the data were not so accurate.

[3] = Amino carbonyl reaction with glycine; assay type: physicochemical; settings: 10% (w/v) with 1% (w/v) glycine, pH 7.0, 100° C.
Experimental: Four milliliters of the resulting solution were placed in a glass test tube, sealed, and heated at 100° C. for 30 to 90 min. After allowing to stand for cooling at ambient temperature, each of the resulting solutions was measured for coloration degree to examine on their amino carbonyl reactivity. The coloration degree was evaluated based on the absorbance in a cell with 1-cm light pass at a wavelength of 480 nm.

[4] = Thermostability of aqueous cyclotetrasaccharide solution; assay type: physicochemical; settings: 10% (w/v) aqueous solution, 120° C.; for Purity (%) after heating: HPLC
Experimental: After the heating, the aqueous solution was cooled under atmospheric conditions and measured for coloration degree and determined for purity on HPLC. The coloration degree was evaluated based on the absorbance in a cell with a 1-cm light pass at a wavelength of 480 nm.

[5] = system: Bifidobacterium adolescentis JCM 1275; assay: Assimilation test, Bifidobacterium adolescentis; assay type: cell-based; settings: PYF medium with 0.5% saccharide, 37° C., four days, anaerobic
[6] = pH stability of cyclotetrasaccharide solution; assay type: physicochemical; settings: 4% (w/v), 100° C. for 24 hours; for Purity (%) after heating: HPLC
Experimental: Eight milliliters of each solution was placed in a glass test tube, followed by sealing the test tube and heating the solution at 100° C. for 24 hours. After cooling, each solution was measured for coloration degree and determined for purity on HPLC. The coloration degree was evaluated based on the absorbance in a cell with a 1-cm light pass at a wavelength of 480 nm.

OC[C@@H](O)[C@@H](O[C@H]1O[C@H](CO)[C@@H](O)[C@H](O)[C@H]1O)[C@H](O)[C@@H](O)CO [Maltitol, reference compound]
Product of transferring reaction, Enzyme of Strain C9 [1]: ++ (a saccharide-transferred product was detected in an amount over ten percent through transfer reaction to acceptor)

OCC1OC2OCC3O[C@H](O[C@H]4C(O)C(CO)OC(OCC5O[C@H](O[C@@H](C1O)C2O)C(O)C(O)[C@@H]5O)C4O)C(O)C(O)[C@@H]3O (stereo partly drawn) [Cyclotetrasaccharide, cyclo{→6)-α-D-glucopyranosyl-(1→3)-α-D-glucopyranosyl-(1→6)-α-D-glucopyranosyl-(1→3)-α-D-glucopyransoyl-(1→}]
Assimilability [2]: − (judged negative (−) when the post culture had a pH of 6.0 or higher) | death of mice (mice; highest possible dose): did not induce death of mice | LD50 (mice; mice, data not so accurate): at least 50 g/kg mouse body weight | Coloration degree (A480 nm) ([3]; heating time 0 min): 0.00 A480 nm | Coloration degree (A480 nm) ([3]; heating time 30 min): 0.00 A480 nm | Coloration degree (A480 nm) ([3]; heating time 60 min): 0.00 A480 nm | Coloration degree (A480 nm) ([3]; heating time 90 min): 0.00 A480 nm | Coloration degree (A480 nm) ([4]; heating time 0 min): 0.00 A480 nm | Purity (%) after heating ([4]; heating time 0 min): 100% | Coloration degree (A480 nm) ([4]; heating time 30 min): 0.00 A480 nm | Purity (%) after heating ([4]; heating time 30 min): 100% | Coloration degree (A480 nm) ([4]; heating time 60 min): 0.00 A480 nm | Purity (%) after heating ([4]; heating time 60 min): 100% | Coloration degree (A480 nm) ([4]; heating time 90 min): 0.00 A480 nm | Purity (%) after heating ([4]; heating time 90 min): 100% | Assimilability [5]: − (judged negative (−) when the post culture had a pH of 6.0 or higher) | Coloration degree (A480 nm) ([6]; pH 2.0 (Acetate buffer)): 0.00 A480 nm | Purity (%) after heating ([6]; pH 2.0 (Acetate buffer)): 93% | Coloration degree (A480 nm) ([6]; pH 3.0 (Acetate buffer)): 0.00 A480 nm | Purity (%) after heating ([6]; pH 3.0 (Acetate buffer)): 100% | Coloration degree (A480 nm) ([6]; pH 4.0 (Acetate buffer)): 0.00 A480 nm | Purity (%) after heating ([6]; pH 4.0 (Acetate buffer)): 100% | Coloration degree (A480 nm) ([6]; pH 5.0 (Acetate buffer)): 0.00 A480 nm | Purity (%) after heating ([6]; pH 5.0 (Acetate buffer)): 100% | Coloration degree (A480 nm) ([6]; pH 6.0 (Tris-HCl buffer)): 0.00 A480 nm | Purity (%) after heating ([6]; pH 6.0 (Tris-HCl buffer)): 100% | Coloration degree (A480 nm) ([6]; pH 7.0 (Tris-HCl buffer)): 0.00 A480 nm | Purity (%) after heating ([6]; pH 7.0 (Tris-HCl buffer)): 100% | Coloration degree (A480 nm) ([6]; pH 8.0 (Tris-HCl buffer)): 0.00 A480 nm | Purity (%) after heating ([6]; pH 8.0 (Tris-HCl buffer)): 100% | Coloration degree (A480 nm) ([6]; pH 9.0 (Ammonium buffer)): 0.00 A480 nm | Purity (%) after heating ([6]; pH 9.0 (Ammonium buffer)): 100% | Coloration degree (A480 nm) ([6]; pH 10.0 (Ammonium buffer)): 0.00 A480 nm | Purity (%) after heating ([6]; pH 10.0 (Ammonium buffer)): 100%
